Converted amounts (≈) assume the structure as drawn. The source made the active and inactive calls. The calls are words filed in the database; no cut-off is given here.
What was measured:
[1] = Intrinsic clearance in monkey liver microsomes; format: ADME, Macaca mulatta, Microsome; conditions: rhesus monkey
[2] = Plasma protein binding in human; format: ADME, cell-free; conditions: read-out: PPB (converted)
Liver microsomes [3] = assay: Intrinsic clearance in human liver microsomes; format: ADME, Microsome
[4] = Inhibition of Escherichia coli DNA gyrase-mediated DNA replication using [3H]dATP by scintillation proximity assay
Rattus norvegicus [5] = assay: Hepatic blood flow in Sprague-Dawley rat at 2.9 mg/kg, iv; format: ADME, organism-based, Liver; set-up: dose 2.9 mg/kg, route intravenous; conditions: in vivo
Canis familiaris [6] = assay: Hepatic blood flow in Beagle dog at 2.6 mg/kg, iv; format: ADME, organism-based, Canis lupus familiaris, Liver; set-up: dose 2.6 mg/kg, route intravenous; conditions: in vivo
Cynomolgus monkey [7] = assay: Hepatic blood flow in cynomolgus monkey at 2.7 mg/kg, iv; format: ADME, organism-based, Macaca fascicularis, Liver; set-up: dose 2.7 mg/kg, route intravenous; conditions: in vivo
Rattus norvegicus [8] = assay: Renal clearance in Sprague-Dawley rat at 2.9 mg/kg, iv; format: ADME, organism-based, Kidney; set-up: dose 2.9 mg/kg, route intravenous; conditions: in vivo
Canis familiaris [9] = assay: Renal clearance in Beagle dog at 2.6 mg/kg, iv; format: ADME, organism-based, Canis lupus familiaris, Kidney; set-up: dose 2.6 mg/kg, route intravenous; conditions: in vivo
Cynomolgus monkey [10] = assay: Renal clearance in cynomolgus monkey at 2.7 mg/kg, iv; format: ADME, organism-based, Macaca fascicularis, Kidney; set-up: dose 2.7 mg/kg, route intravenous; conditions: in vivo
Liver microsomes [11] = assay: Drug metabolism in rat liver microsomes assessed as mono-oxidation metabolite formation; format: ADME, Microsome
[12] = Drug metabolism in dog liver microsomes assessed as mono-oxidation metabolite formation; format: ADME, Canis lupus familiaris, Microsome
[13] = Drug metabolism in monkey liver microsomes assessed as mono-oxidation metabolite formation; format: ADME, Macaca mulatta, Microsome; conditions: rhesus monkey
Haemophilus influenzae [14] = assay: Antibacterial activity against Haemophilus influenzae H128 after 18 to 24 hrs by broth microdilution technique; format: functional
Staphylococcus aureus = assay: Antibacterial activity against Staphylococcus aureus WCUH 29 after 18 to 24 hrs by broth microdilution technique; format: functional
Streptococcus pneumoniae [15] = assay: Antibacterial activity against Streptococcus pneumoniae 1629 after 18 to 24 hrs by broth microdilution technique; format: functional
Streptococcus pneumoniae [16] = assay: Antibacterial activity against Streptococcus pneumoniae 1629 infected in rat assessed as log decrease in colony forming units per lung at 25 mg/kg, po after 48 hrs relative to untreated control; format: functional
Streptococcus pneumoniae [17] = assay: Antibacterial activity against Streptococcus pneumoniae 1629 infected in rat assessed as complete eradication of infection at 50 mg/kg, po after 48 hrs; format: functional, organism-based; set-up: dose 50 mg/kg
[18] = Blood clearance in Sprague-Dawley rat at 2.9 mg/kg, iv; format: ADME, organism-based; set-up: dose 2.9 mg/kg, route intravenous
[19] = Volume of distribution at steady state in Sprague-Dawley rat at 2.9 mg/kg, iv; format: ADME, organism-based; set-up: dose 2.9 mg/kg, route intravenous; conditions: in vivo, read-out: Vdss
[20] = Half life in Sprague-Dawley rat at 2.9 mg/kg, iv; format: ADME, organism-based; set-up: dose 2.9 mg/kg, route intravenous; conditions: in vivo
[21] = AUC in Sprague-Dawley rat at 4.6 mg/kg, po; format: ADME, organism-based; set-up: dose 4.6 mg/kg, route oral; conditions: plasma
[22] = Mean residence time in Sprague-Dawley rat at 4.6 mg/kg, po; format: ADME, organism-based; set-up: dose 4.6 mg/kg, route oral; conditions: in vivo
[23] = Oral bioavailability in Sprague-Dawley rat at 4.6 mg/kg; format: ADME, organism-based; conditions: in vivo
[24] = Plasma protein binding in rat; format: ADME, cell-free; conditions: read-out: PPB (converted)
[25] = Blood clearance in Beagle dog at 2.6 mg/kg, iv; format: ADME, organism-based, Canis lupus familiaris; set-up: dose 2.6 mg/kg, route intravenous
[26] = Volume of distribution at steady state in Beagle dog at 2.6 mg/kg, iv; format: ADME, organism-based, Canis lupus familiaris; set-up: dose 2.6 mg/kg, route intravenous; conditions: in vivo, read-out: Vdss
[27] = Half life in Beagle dog at 2.6 mg/kg, iv; format: ADME, organism-based, Canis lupus familiaris; set-up: dose 2.6 mg/kg, route intravenous; conditions: in vivo
[28] = AUC in Beagle dog at 4.5 mg/kg, po; format: ADME, organism-based, Canis lupus familiaris; set-up: dose 4.5 mg/kg, route oral; conditions: plasma
[29] = Mean residence time in Beagle dog at 4.5 mg/kg, po; format: ADME, organism-based, Canis lupus familiaris; set-up: dose 4.5 mg/kg, route oral; conditions: in vivo
[30] = Oral bioavailability in Beagle dog at 4.5 mg/kg; format: ADME, organism-based, Canis lupus familiaris; conditions: in vivo
[31] = Plasma protein binding in dog; format: ADME, cell-free, Canis lupus familiaris; conditions: read-out: PPB (converted)
Liver = assay: Intrinsic clearance in dog liver microsomes; format: ADME, Canis lupus familiaris, Microsome
[32] = Blood clearance in cynomolgus monkey at 2.7 mg/kg, iv; format: ADME, organism-based, Macaca fascicularis; set-up: dose 2.7 mg/kg, route intravenous
[33] = Volume of distribution at steady state in cynomolgus monkey at 2.7 mg/kg, iv; format: ADME, organism-based, Macaca fascicularis; set-up: dose 2.7 mg/kg, route intravenous; conditions: in vivo, read-out: Vdss
[34] = Half life in cynomolgus monkey at 2.7 mg/kg, iv; format: ADME, organism-based, Macaca fascicularis; set-up: dose 2.7 mg/kg, route intravenous; conditions: in vivo
[35] = AUC in cynomolgus monkey at 4.4 mg/kg, po; format: ADME, organism-based, Macaca fascicularis; set-up: dose 4.4 mg/kg, route oral; conditions: plasma
[36] = Mean residence time in cynomolgus monkey at 4.4 mg/kg, po; format: ADME, organism-based, Macaca fascicularis; set-up: dose 4.4 mg/kg, route oral; conditions: in vivo
[37] = Oral bioavailability in cynomolgus monkey at 4.4 mg/kg; format: ADME, organism-based, Macaca fascicularis; conditions: in vivo
[38] = Plasma protein binding in monkey; format: ADME, cell-free, Macaca mulatta; conditions: rhesus monkey, read-out: PPB (converted)
[39] = target: Voltage-gated inwardly rectifying potassium channel KCNH2 (Homo sapiens, UniProt Q12809); assay: Inhibition of human ERG by whole cell patch clamp assay
Haemophilus influenzae [40] = assay: Antibacterial activity against Haemophilus influenzae Q1 after 18 to 24 hrs by broth microdilution technique; format: functional

Voltage-gated inwardly rectifying potassium channel KCNH2, sequence (Q12809 whole entry): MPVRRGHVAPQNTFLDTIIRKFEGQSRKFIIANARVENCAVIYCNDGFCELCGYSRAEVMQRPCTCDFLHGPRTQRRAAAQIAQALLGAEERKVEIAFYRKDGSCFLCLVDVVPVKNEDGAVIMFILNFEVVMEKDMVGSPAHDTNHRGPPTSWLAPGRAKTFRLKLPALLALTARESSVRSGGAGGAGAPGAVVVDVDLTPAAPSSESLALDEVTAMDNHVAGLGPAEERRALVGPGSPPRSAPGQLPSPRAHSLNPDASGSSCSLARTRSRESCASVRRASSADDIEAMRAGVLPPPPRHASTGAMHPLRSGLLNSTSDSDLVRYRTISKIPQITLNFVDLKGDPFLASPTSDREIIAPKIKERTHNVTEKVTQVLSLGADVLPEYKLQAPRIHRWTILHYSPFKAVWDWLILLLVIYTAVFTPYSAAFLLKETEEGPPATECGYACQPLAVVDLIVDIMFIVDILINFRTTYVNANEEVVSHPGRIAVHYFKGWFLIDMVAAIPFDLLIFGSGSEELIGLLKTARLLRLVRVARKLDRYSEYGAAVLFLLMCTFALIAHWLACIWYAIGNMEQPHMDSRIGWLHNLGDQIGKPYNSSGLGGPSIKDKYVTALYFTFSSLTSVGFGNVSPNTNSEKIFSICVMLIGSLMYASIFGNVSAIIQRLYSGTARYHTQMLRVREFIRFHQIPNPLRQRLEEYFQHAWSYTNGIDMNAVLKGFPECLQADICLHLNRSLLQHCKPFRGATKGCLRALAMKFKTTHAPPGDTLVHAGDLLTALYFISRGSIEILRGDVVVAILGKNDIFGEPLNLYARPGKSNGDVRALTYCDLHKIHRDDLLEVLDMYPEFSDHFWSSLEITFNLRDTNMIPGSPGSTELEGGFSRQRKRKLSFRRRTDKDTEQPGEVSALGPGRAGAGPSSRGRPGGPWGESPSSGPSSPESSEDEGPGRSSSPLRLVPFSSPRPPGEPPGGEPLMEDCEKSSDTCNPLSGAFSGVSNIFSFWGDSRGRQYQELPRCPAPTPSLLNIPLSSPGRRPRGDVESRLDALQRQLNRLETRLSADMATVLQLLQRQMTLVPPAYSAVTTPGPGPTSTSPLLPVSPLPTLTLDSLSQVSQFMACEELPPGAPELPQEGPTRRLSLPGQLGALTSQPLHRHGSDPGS

COc1ccc2nccc(NC(=O)[C@]3(O)CC[C@@H](NCc4cc5c(cn4)OCCO5)CC3)c2n1
CL [1]: 2.6 mL/min/g | fraction unbound [2]: 0.274 | CL (Liver microsomes [3]): 0.8 mL/min/g | IC50 [4]: 0.013 µg/mL (≈ 0.0279 µM) | QH (Rattus norvegicus [5]): 73% | QH (Canis familiaris [6]): 73% | QH (Cynomolgus monkey [7]): 73% | CL (Rattus norvegicus [8]): 3% | CL (Canis familiaris [9]): 3% | CL (Cynomolgus monkey [10]): 3% | Drug metabolism (Liver microsomes [11]): Active | Drug metabolism [12]: Active | Drug metabolism [13]: Active | MIC (Haemophilus influenzae [14]): 0.5 µg/mL (≈ 1.07 µM) | MIC (Staphylococcus aureus): 0.01 µg/mL (≈ 0.0215 µM) | MIC (Streptococcus pneumoniae [15]): 0.125 µg/mL (≈ 0.269 µM) | log10cfu (Streptococcus pneumoniae [16]): 2 | Activity (Streptococcus pneumoniae [17]): Active | clearance [18]: 41.1 mL/min/kg | Vd [19]: 2.41 L/kg | half-life [20]: 1 h | AUC [21]: 340 ng·h/mL | MRT [22]: 2.9 h | bioavailability [23]: 18% | fraction unbound [24]: 0.268 | clearance [25]: 8.4 mL/min/kg | Vd [26]: 3.7 L/kg | half-life [27]: 6.3 h | AUC [28]: 5700 ng·h/mL | MRT [29]: 9.8 h | bioavailability [30]: 63% | fraction unbound [31]: 0.263 | CL (Liver): 2.2 mL/min/g | clearance [32]: 34.2 mL/min/kg | Vd [33]: 4.1 L/kg | half-life [34]: 1.8 h | AUC [35]: 190 ng·h/mL | MRT [36]: 6.4 h | bioavailability [37]: 9% | fraction unbound [38]: 0.165

N#Cc1ccc2cccc(NC(=O)[C@@H]3CC[C@@H](NCc4cc5c(cn4)OCCO5)[C@@H](O)C3)c2n1
IC50 [4]: 0.001 µg/mL (≈ 0.00218 µM) | MIC (Haemophilus influenzae [14]): 0.5 µg/mL (≈ 1.09 µM) | MIC (Staphylococcus aureus): 0.01 µg/mL (≈ 0.0218 µM) | MIC (Streptococcus pneumoniae [15]): 0.03 µg/mL (≈ 0.0653 µM)

COc1ccc2nccc(NC(=O)[C@H]3CC[C@H](NCc4cc5c(cn4)OCCO5)CC3)c2n1
IC50 [4]: 0.008 µg/mL (≈ 0.0178 µM) | MIC (Haemophilus influenzae [14]): 0.25 µg/mL (≈ 0.556 µM) | MIC (Staphylococcus aureus): 0.01 µg/mL (≈ 0.0222 µM) | MIC (Streptococcus pneumoniae [15]): 0.03 µg/mL (≈ 0.0667 µM) | IC50 [39]: 29 µM

COc1ccc2nccc(NC(=O)[C@]3(O)CC[C@@H](NCc4cnc5c(c4)OCCO5)CC3)c2n1
IC50 [4]: 0.01 µg/mL (≈ 0.0215 µM) | MIC (Haemophilus influenzae [14]): 2 µg/mL (≈ 4.3 µM) | MIC (Staphylococcus aureus): 0.03 µg/mL (≈ 0.0644 µM) | MIC (Streptococcus pneumoniae [15]): 0.06 µg/mL (≈ 0.129 µM)

COc1cc(F)c2nccc(NC(=O)[C@]3(O)CC[C@@H](NCc4cc5c(cn4)OCCO5)CC3)c2c1
IC50 [4]: 0.009 µg/mL (≈ 0.0187 µM) | MIC (Haemophilus influenzae [14]): 1 µg/mL (≈ 2.07 µM) | MIC (Staphylococcus aureus): 0.06 µg/mL (≈ 0.124 µM) | MIC (Streptococcus pneumoniae [15]): 0.125 µg/mL (≈ 0.259 µM) | IC50 [39]: 113 µM

CO[C@@H]1C[C@H](C(=O)Nc2cccc3ccc(C)nc23)CC[C@H]1NCc1cc2c(cn1)OCCO2
IC50 [4]: 0.102 µg/mL (≈ 0.221 µM) | MIC (Haemophilus influenzae [14]): 16 µg/mL (≈ 34.6 µM) | MIC (Staphylococcus aureus): 0.5 µg/mL (≈ 1.08 µM) | MIC (Streptococcus pneumoniae [15]): 0.5 µg/mL (≈ 1.08 µM)

N#Cc1ccc2cccc(NC(=O)[C@]3(O)CC[C@@H](NCc4cc5c(cn4)OCCO5)CC3)c2n1
IC50 [4]: 0.002 µg/mL (≈ 0.00435 µM) | MIC (Haemophilus influenzae [14]): 0.5 µg/mL (≈ 1.09 µM) | MIC (Staphylococcus aureus): 0.03 µg/mL (≈ 0.0653 µM) | MIC (Streptococcus pneumoniae [15]): 0.06 µg/mL (≈ 0.131 µM)

COc1ccc2nccc(NC(=O)[C@H]3CC[C@H](NCc4ccc5c(c4)OCCO5)CC3)c2c1
IC50 [4]: 0.017 µg/mL (≈ 0.038 µM) | MIC (Haemophilus influenzae [40]): 2 µg/mL (≈ 4.47 µM) | MIC (Staphylococcus aureus): 0.03 µg/mL (≈ 0.067 µM) | MIC (Streptococcus pneumoniae [15]): 0.25 µg/mL (≈ 0.559 µM) | IC50 [39]: 25 µM

COc1ccc2nccc(NC(=O)[C@]3(O)CC[C@@H](NCc4ccc5c(c4)OCCO5)CC3)c2n1
IC50 [4]: 0.004 µg/mL (≈ 0.00861 µM) | MIC (Haemophilus influenzae [14]): 0.5 µg/mL (≈ 1.08 µM) | MIC (Staphylococcus aureus): 0.03 µg/mL (≈ 0.0646 µM) | MIC (Streptococcus pneumoniae [15]): 0.03 µg/mL (≈ 0.0646 µM) | IC50 [39]: 25 µM

COc1ccc2nccc(NC(=O)[C@]3(O)CC[C@@H](NCc4cc5c(cn4)OCCO5)CC3)c2c1
IC50 [4]: 0.01 µg/mL (≈ 0.0215 µM) | MIC (Haemophilus influenzae [14]): 1 µg/mL (≈ 2.15 µM) | MIC (Staphylococcus aureus): 0.125 µg/mL (≈ 0.269 µM) | MIC (Streptococcus pneumoniae [15]): 0.125 µg/mL (≈ 0.269 µM) | IC50 [39]: 200 µM

COc1ccc2nccc(NC(=O)[C@H]3CC[C@H](NCc4ccc5c(c4)OCCO5)CC3)c2n1
IC50 [4]: 0.003 µg/mL (≈ 0.00669 µM) | MIC (Haemophilus influenzae [14]): 1 µg/mL (≈ 2.23 µM) | MIC (Staphylococcus aureus): 0.03 µg/mL (≈ 0.0669 µM) | MIC (Streptococcus pneumoniae [15]): 0.125 µg/mL (≈ 0.279 µM)

Cc1ccc2cccc(NC(=O)[C@H]3CC[C@H](NCc4cc5c(cn4)OCCO5)CC3)c2n1
IC50 [4]: 0.069 µg/mL (≈ 0.16 µM) | MIC (Haemophilus influenzae [14]): 2 µg/mL (≈ 4.62 µM) | MIC (Staphylococcus aureus): 0.125 µg/mL (≈ 0.289 µM) | MIC (Streptococcus pneumoniae [15]): 0.25 µg/mL (≈ 0.578 µM)

Cc1ccc2cccc(NC(=O)[C@]3(O)CC[C@@H](NCc4cc5c(cn4)OCCO5)CC3)c2n1
IC50 [4]: 0.05 µg/mL (≈ 0.111 µM) | MIC (Haemophilus influenzae [14]): 2 µg/mL (≈ 4.46 µM) | MIC (Staphylococcus aureus): 0.125 µg/mL (≈ 0.279 µM) | MIC (Streptococcus pneumoniae [15]): 0.125 µg/mL (≈ 0.279 µM) | IC50 [39]: 2 µM
